According to patent US20220197161A1, “ELECTROPHOTOGRAPHIC PHOTOCONDUCTOR, METHOD OF MANUFACTURING THE SAME, AND ELECTROPHOTOGRAPHIC EQUIPMENT” (FUJI ELECTRIC CO., LTD., priority 2020, published 2022):

Test: solubility SETM (THF): mass of tetrahydrofuran required to dissolve 1 g of the azoquinone derivative
Assay type: physicochemical
Conditions: mass (g) of tetrahydrofuran required to dissolve 1 g of the azoquinone derivative
From the text: The solubility SETM (THF) of the azoquinone derivative having a structure represented by the general formula (ET1) (the mass (g) of tetrahydrofuran required to dissolve 1 g of the azoquinone derivative) preferably satisfies the following inequality:
For the azoquinone derivative having a structure represented by the general formula (ET1) in a preferred embodiment, the solubility SETM (THF), as represented by the mass (g) of tetrahydrofuran required to dissolve 1 g of the electron transport materials), of the electron transport materials also satisfies the following inequality:
The solubility SETM (THF) of the azoquinone derivative, as represented by the mass (g) of tetrahydrofuran required to dissolve 1 g of the azoquinone derivative having a structure represented by the above structural formula (ET1-4)), was 1 (g).

Structure (SMILES) | solubility SETM (THF) [g]
CC(C)(C)C1=CC(=CN=Nc2ccc(Cl)cc2)C=C(C(C)(C)C)C1=O [ET-1] | 3
CC(C)(C)C1=CC(=CN=Nc2c(Cl)cc(Cl)cc2Cl)C=C(C(C)(C)C)C1=O [ET1-5] | 1
CC(C)(C)C1=CC(=CN=Nc2cc(Cl)ccc2Cl)C=C(C(C)(C)C)C1=O [ET1-4] | 1
CC(C)(C)C1=CC(=CN=Nc2ccc(F)cc2F)C=C(C(C)(C)C)C1=O [ET-2] | 15
CC(C)(C)C1=CC(=CN=Nc2c(F)c(F)c(F)c(F)c2F)C=C(C(C)(C)C)C1=O [ET-3] | 22
CC(C)(C)C1=CC(=CN=Nc2c(Cl)cccc2Cl)C=C(C(C)(C)C)C1=O [ET1-3] | ≤ 1
